Reference: patent US20240140958A1, “FUSED QUADRACYCLIC COMPOUNDS, COMPOSITIONS AND USES THEREOF” (Tabomedex Biosciences, Inc., priority 2021, published 2024)

molecular target: T1, MAPKAPK2 Recombinant Human Protein (Homo sapiens, UniProt P49137); experiment: MK2 kinase assay (Z'-LYTE kinase assay kit); details: inhibition of MK2 biochemical activity; 90 min incubation at room temperature
T1 construct: purchased ThermoFisher pv3317
Description: Materials and Reagents for Measuring Inhibition of MK2 Biochemical Activity: • 1) Assay plate: 384 Well Low Volume Black Round Bottom Polystyrene NBS Microplate (Corning, Cat.No. 4514) • 2) MK2 kinase assay kit: Z' LYTE KINASE ASSAY KIT (ThermoFisher, Cat.No. pv3177) • 3) MAPKAPK2 Recombinant Human Protein (ThermoFisher, Cat.No. pv3317) • 4) DMSO (Vetec, Cat.No. V900090) • 5) DTT (Sigma, Cat.No. D0632)
MK2 Kinase Assay Procedure: • 1) Dispense 5 μl Kinase/Peptide Mixture to each wells of 384-well plate • 2) Add 2.5 μl 4× Test Compound to each well • 3) Add 2.5 μl 4× ATP Solution to each well • 4) After 90 minutes incubation at room temperature, add 5 μl Development Solution to each well • 5) After 60 minutes incubation at room temperature, add 5 μl stop Solution to each well • 6) Measure the Coumarin (Ex. 400 nm, Em. 445 nm) and Fluorescein (Ex. 400 nm, Em. 520 nm) emission signals on an Envision plate reader (PerkinElmer)

T1 sequence (P49137 whole entry): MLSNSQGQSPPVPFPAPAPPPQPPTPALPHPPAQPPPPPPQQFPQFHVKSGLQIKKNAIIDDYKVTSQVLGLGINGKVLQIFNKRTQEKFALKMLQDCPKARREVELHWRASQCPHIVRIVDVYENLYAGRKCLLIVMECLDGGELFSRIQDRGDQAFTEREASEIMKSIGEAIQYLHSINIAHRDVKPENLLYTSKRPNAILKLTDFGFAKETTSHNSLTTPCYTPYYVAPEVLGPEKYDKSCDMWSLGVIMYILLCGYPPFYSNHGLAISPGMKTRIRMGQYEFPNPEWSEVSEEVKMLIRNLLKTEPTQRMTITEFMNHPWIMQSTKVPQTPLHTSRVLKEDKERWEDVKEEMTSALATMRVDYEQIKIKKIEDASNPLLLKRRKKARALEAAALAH

IC50, 50 to 100 nM:
CN(C)C1CCC(C(=O)Nc2ccc3c(c2)Cn2cc(-c4ccc(C#N)cc4)cc2-c2nccn2-3)C1 (stereo not drawn) [Example 78]
C[N+](C)(C)C[C@H]1CC(=O)N(c2ccc3c(c2)Cn2cc(-c4ccc(C#N)cc4)cc2-c2nccn2-3)C1 [Example 18, (S)-1-(1-(12-(4-cyanophenyl)-9H-benzo[e]imidazo[2,1-c]pyrrolo[1,2-a][1,4]diazepin-7-yl)-5-oxopyrrolidin-3-yl)-N,N,N-trimethylmethanaminium iodide]
CN1CC(C)(CNC(=O)c2ccc3c(c2)Cn2cc(-c4ccc(C#N)cc4)cc2-c2nccn2-3)C1 [Example 121]
N#Cc1ccc(-c2cc3n(c2)Cc2cc(N4CCN(C5CC5)CC4=O)ccc2-n2ccnc2-3)cc1 [Example 31, 4-(7-(4-Cyclopropyl-2-oxopiperazin-1-yl)-9H-benzo[e]imidazo[2,1-c]pyrrolo [1,2-a][1,4]diazepin-12-yl)benzonitrile]
Cc1nnc2n1-c1ccc(N3CCC(CN(C)C)C3=O)cc1Cn1cc(-c3ccc(C#N)cc3)cc1-2 (stereo not drawn) [Example 84]
CN(C)[C@H]1CCCN(C(=O)c2ccc3c(c2)Cn2cc(-c4ccc(C#N)cc4)cc2-c2nccn2-3)C1 [Example 125]
CN1CCC2(CC1)CN(C(=O)c1ccc3c(c1)Cn1cc(-c4ccc(C#N)cc4)cc1-c1nccn1-3)C2 [Example 131]
N#Cc1ccc(-c2cc3n(c2)Cc2cc(N4C[C@@H](N)CC4=O)ccc2-n2ccnc2-3)cc1 [Example 32, (S)-4-(7-(4-Amino-2-oxopyrrolidin-1-yl)-9H-benzo[e]imidazo[2,1-c]pyrrolo [1,2-a][1,4]diazepin-12-yl)benzonitrile]
CN1CC(N(C)C(=O)c2ccc3c(c2)Cn2cc(-c4ccc(C#N)cc4)cc2-c2nccn2-3)C1 [Example 132, 12-(4-Cyanophenyl)-N-methyl-N-(1-methylazetidin-3-yl)-9H-benzo[e]imidazo [2,1c]pyrrolo[1,2-a][1,4]diazepine-7-carboxamide]
CN(C)[C@@H]1CCCN(C(=O)c2ccc3c(c2)Cn2cc(-c4ccc(C#N)cc4)cc2-c2nccn2-3)C1 [Example 124]
CN(C)C[C@@H]1[C@@H]2CN(c3ccc4c(c3)Cn3cc(-c5ccc(C#N)cc5)cc3-c3nccn3-4)C(=O)[C@H]12 [Example 45, 4-(7-((1R,5S,6R)-6-((Dimethylamino)methyl)-2-oxo-3-azabicyclo[3.1.0]hexan-3-yl)-9H-benzo[e]imidazo[2,1-c]pyrrolo[1,2-a][1,4]diazepin-12-yl)benzonitrile]
N#Cc1ccc(-c2cc3n(c2)Cc2cc(N4C[C@@H](CN)OC4=O)ccc2-n2ccnc2-3)cc1 [Example 2]
CC(C)(N)C1CCN(c2ccc3c(c2)Cn2cc(-c4ccc(C#N)cc4)cc2-c2nccn2-3)C1=O (stereo not drawn) [Example 44, 4-(7-(3-(2-Aminopropan-2-yl)-2-oxopyrrolidin-1-yl)-9H-benzo[e]imidazo [2,1-c]pyrrolo[1,2-a][1,4]diazepin-12-yl)benzonitrile]
N#Cc1ccc(-c2cc3n(c2)Cc2cc(N4CC(C5(CO)COC(=O)N5)CC4=O)ccc2-n2ccnc2-3)cc1 (stereo not drawn) [Example 63, 4-(7-(4-(4-(Hydroxymethyl)-2-oxooxazolidin-4-yl)-2-oxopyrrolidin-1-yl)-9H-benzo[e]imidazo[2,1-c]pyrrolo[1,2-a][1,4]diazepin-12-yl)benzonitrile]
CN(CC(CN)CO)C(=O)c1ccc2c(c1)Cn1cc(-c3ccc(C#N)cc3)cc1-c1nccn1-2 (stereo not drawn) [Example 136]
CN(C)C[C@H]1CC(=O)N(c2ccc3c(c2F)Cn2cc(-c4ccc(C#N)cc4)cc2-c2nccn2-3)C1 [Example 92, (R)-4-(7-(4-((Dimethylamino)methyl)-2-oxopyrrolidin-1-yl)-8-fluoro-9H-benzo[e]imidazo[2,1-c]pyrrolo[1,2-a][1,4]diazepin-12-yl)benzonitrile]
CN(C)CC1CCN(C(=O)c2ccc3c(c2)Cn2cc(-c4ccc(C#N)cc4)cc2-c2nccn2-3)C1 (stereo not drawn) [Example 112, 4-(7-(3-((dimethylamino)methyl)pyrrolidine-1-carbonyl)-9H-benzo[e]imidazo [2,1-c]pyrrolo[1,2-a][1,4]diazepin-12-yl)benzonitrile]
N#Cc1ccc(-c2cc3n(c2)Cc2cc(N4C[C@H](CO)NCC4=O)ccc2-n2ccnc2-3)cc1 [Example 80, (R)-4-(7-(5-(Hydroxymethyl)-2-oxopiperazin-1-yl)-9H-benzo[e]imidazo[2,1-c]pyrrolo[1,2-a][1,4]diazepin-12-yl)benzonitrile]

IC50, < 50 nM:
CN(C)CCC1CCN(c2ccc3c(c2)Cn2cc(-c4ccc(C#N)cc4)cc2-c2nccn2-3)C1=O (stereo not drawn) [Example 40, 4-(7-(3-(2-(Dimethylamino)ethyl)-2-oxopyrrolidin-1-yl)-9H-benzo[e]imidazo [2,1-c]pyrrolo[1,2-a][1,4]diazepin-12-yl)benzonitrile]
[2H]C([2H])([2H])N(C([2H])([2H])[2H])C([2H])([2H])C1CCN(c2ccc3c(c2)Cn2cc(-c4ccc(C#N)cc4)cc2-c2nccn2-3)C1=O (stereo not drawn) [Example 38, 4-(7-(3-((Dideuteratedmethylamino)deuteratedmethyl)-2-oxopyrrolidin-1-yl)-9H-benzo[e]imidazo[2,1-c]pyrrolo[1,2-a][1,4]diazepin-12-yl)benzonitrile]
CN1CC[C@H](NC(=O)c2ccc3c(c2)Cn2cc(-c4ccc(C#N)cc4)cc2-c2nccn2-3)C1 [Example 102]
CN1CCN2C(=O)N(c3ccc4c(c3)Cn3cc(-c5ccc(C#N)cc5)cc3-c3nccn3-4)C[C@H]2C1 [Example 60, (R)-4-(7-(7-Methyl-3-oxohexahydroimidazo[1,5-a]pyrazin-2(3H)-yl)-9H-benzo[e]imidazo[2,1-c]pyrrolo[1,2-a][1,4]diazepin-12-yl)benzonitrile]
CC(C)(N)C1CN(c2ccc3c(c2)Cn2cc(-c4ccc(C#N)cc4)cc2-c2nccn2-3)C(=O)O1 (stereo not drawn) [Example 20]
CC(C)(N)C1CC(=O)N(c2ccc3c(c2)Cn2cc(-c4ccc(C#N)cc4)cc2-c2nccn2-3)C1 (stereo not drawn) [Example 51]
N#Cc1ccc(-c2cc3n(c2)Cc2cc(N4C[C@@H](C5(N)CC5)CC4=O)ccc2-n2ccnc2-3)cc1 (stereo in doubt) [Example 49, (S)-4-(7-(4-(1-aminocyclopropyl)-2-oxopyrrolidin-1-yl)-9H-benzo[e]imidazo [2,1-c]pyrrolo[1,2-a][1,4]diazepin-12-yl)benzonitrile]
CC1(C2CC(=O)N(c3ccc4c(c3)Cn3cc(-c5ccc(C#N)cc5)cc3-c3nccn3-4)C2)CCN1 (stereo not drawn) [Example 62, 4-(7-(4-(2-methylazetidin-2-yl)-2-oxopyrrolidin-1-yl)-9H-benzo[e]imidazo[2,1-c]pyrrolo[1,2-a][1,4]diazepin-12-yl)benzonitrile]

IC50, 300 to 400 nM:
CN(C)[C@H]1CC[C@H](NC(=O)c2ccc3c(c2)Cn2cc(-c4ccc(C#N)cc4)cc2-c2nccn2-3)C1 [Example 122]
CN(C)[C@@H]1CC[C@@H](NC(=O)c2ccc3c(c2)Cn2cc(-c4ccc(C#N)cc4)cc2-c2nccn2-3)C1 [Example 123]

IC50, 200 to 300 nM:
Cc1nnc2n1CCN(C(=O)c1ccc3c(c1)Cn1cc(-c4ccc(C#N)cc4)cc1-c1nccn1-3)C2 [Example 108]
CN1CC[C@@H](N(C)C(=O)c2ccc3c(c2)Cn2cc(-c4ccc(C#N)cc4)cc2-c2nccn2-3)C1 [Example 134]
CC(C)(N)CNC(=O)c1ccc2c(c1)Cn1cc(-c3ccc(C#N)cc3)cc1-c1nccn1-2 [Example 111]
CN[C@H]1CC[C@H](N(C)C(=O)c2ccc3c(c2)Cn2cc(-c4ccc(C#N)cc4)cc2-c2nccn2-3)C1 [Example 133]
CN(C)C[C@H]1CCCN1C(=O)c1ccc2c(c1)Cn1cc(-c3ccc(C#N)cc3)cc1-c1nccn1-2 [Example 113]
CN1CCN(C(=O)c2ccc3c(c2)Cn2cc(-c4ccc(C#N)cc4)cc2-c2nccn2-3)CC1 [Example 107]
CN(C)C1CN(C(=O)c2ccc3c(c2)Cn2cc(-c4ccc(C#N)cc4)cc2-c2nccn2-3)C1 [Example 104]
CN(C)C1CCN(C(=O)c2ccc3c(c2)Cn2cc(-c4ccc(C#N)cc4)cc2-c2nccn2-3)C1 (stereo not drawn) [Example 103]

IC50, 100 to 200 nM:
CN(CC1CNC1)C(=O)c1ccc2c(c1)Cn1cc(-c3ccc(C#N)cc3)cc1-c1nccn1-2 [Example 135]
CN(C)C[C@@H]1CCCN1C(=O)c1ccc2c(c1)Cn1cc(-c3ccc(C#N)cc3)cc1-c1nccn1-2 [Example 114]
CN(C)CC1(C)CCN(c2ccc3c(c2)Cn2cc(-c4ccc(C#N)cc4)cc2-c2nccn2-3)C1=O (stereo not drawn) [Example 39, 4-(7-(3-((Dimethylamino)methyl)-3-methyl-2-oxopyrrolidin-1-yl)-9H-benzo[e]imidazo[2,1-c]pyrrolo[1,2-a][1,4]diazepin-12-yl)benzonitrile]
N#Cc1ccc(-c2cc3n(c2)Cc2cc(C(=O)NCCN4CCC4)ccc2-n2ccnc2-3)cc1 [Example 118]
CN(C)[C@H]1C[C@@H](NC(=O)c2ccc3c(c2)Cn2cc(-c4ccc(C#N)cc4)cc2-c2nccn2-3)C1 [Example 127]
CN1CC(C)(NC(=O)c2ccc3c(c2)Cn2cc(-c4ccc(C#N)cc4)cc2-c2nccn2-3)C1 [Example 129]
